ChEMBL document CHEMBL1764977, “Anti-tumor and anti-leishmanial evaluations of 1,3,4-oxadiazine, pyran derivatives derived from cross-coupling reactions of β-bromo-6H-1,3,4-oxadiazine derivatives” (2011)

Legend:
Format in all cases: functional
MCF7 = assay: Growth inhibition of human MCF7 cells after 48 hrs by sulforhodamine B assay; settings: MCF7, 48 h
NCI-H460 = assay: Growth inhibition of human NCI-H460 cells after 48 hrs by sulforhodamine B assay; settings: NCI-H460, 48 h
SF-268 = assay: Growth inhibition of human SF268 cells after 48 hrs by sulforhodamine B assay; settings: SF-268, 48 h
Leishmania donovani = assay: Antileishmanial activity against Leishmania donovani axenic amastigotes infected in human THP1 cells assessed as growth inhibition at 50 uM; settings: THP-1, read-out: GI
THP-1 = assay: Growth inhibition of human THP1 cells after 48 hrs by sulforhodamine B assay; settings: THP-1, 48 h

| SMILES | GI50 (MCF7) [µM] | GI50 (NCI-H460) [µM] | GI50 (THP-1) [µM] | GI50 (SF-268) [µM] | inhibition of growth at 50 µM (Leishmania donovani) [%] |
| --- | --- | --- | --- | --- | --- |
| N#CCC(=O)N/N=C(/CBr)c1ccc(Br)cc1 | 40.6 | 10 | – | 12.8 | 20 |
| N#CCC(=O)N/N=C(/CBr)c1ccc([N+](=O)[O-])cc1 | 18.4 | 10.3 | – | 14 | 35 |
| N#CCC1=NN=C(c2ccc(Br)cc2)C(Br)O1 (stereo not given) | 70.7 | 38.2 | – | 32 | 40 |
| N#CCC1=NN=C(c2ccc([N+](=O)[O-])cc2)C(Br)O1 (stereo not given) | 10.6 | 8.5 | 22 | 6.7 | 58 |
| N#CCC1=NN=C(c2ccc(Br)cc2)C(CC(=O)c2ccc(Br)cc2)O1 (stereo not given) | 30.4 | 22.1 | – | 16.9 | 48 |
| N#CCC1=NN=C(c2ccc(Br)cc2)C(CC(=O)c2ccc([N+](=O)[O-])cc2)O1 (stereo not given) | 32 | 23 | 20 | 18.5 | 60 |
| N#CCC1=NN=C(c2ccc([N+](=O)[O-])cc2)C(CC(=O)c2ccc(Br)cc2)O1 (stereo not given) | 36 | 40 | – | 16.5 | 73 |
| N#CCC1=NN=C(c2ccc([N+](=O)[O-])cc2)C(CC(=O)c2ccc([N+](=O)[O-])cc2)O1 (stereo not given) | 1.6 | 2.6 | 33 | 2 | 88 |
| N#CCC1=C(C#N)CC(c2ccc(Br)cc2)=C(CC(=O)c2ccc(Br)cc2)O1 | 12 | 10.4 | – | 8.2 | 60 |
| N#CCC1=C(C#N)CC(c2ccc([N+](=O)[O-])cc2)=C(CC(=O)c2ccc(Br)cc2)O1 | 4.9 | 3.6 | 26 | 2.8 | 82 |
| C[C@@H]1[C@H](O)[C@@H](C)/C=C/C=C/C=C/C=C/C=C/C=C/C=C/[C@H](O[C@@H]2O[C@H](C)[C@@H](O)[C@H](N)[C@@H]2O)C[C@@H]2O[C@](O)(C[C@@H](O)C[C@@H](O)[C@H](O)CC[C@@H](O)C[C@@H](O)CC(=O)O[C@H]1C)C[C@H](O)[C@H]2C(=O)O [AMPHOTERICIN B] | – | – | – | – | 95 |

The next lines start with results.

| GI50 (MCF7) [µM] | GI50 (NCI-H460) [µM] | GI50 (THP-1) [µM] | SMILES | GI50 (SF-268) [µM] | inhibition of growth at 50 µM (Leishmania donovani) [%] |
| --- | --- | --- | --- | --- | --- |
| 1.5 | 0.9 | – | N#CCC1=NN=C(c2ccc(Br)cc2)CO1 | 10.3 | 26 |
| 0.001 | 0.002 | – | N#CCC1=NN=C(c2ccc([N+](=O)[O-])cc2)CO1 | 1.8 | 44 |
| 0.09 | 0.01 | 12.9 | N#CCC1=C(C#N)CC(c2ccc(Br)cc2)=C(CC(=O)c2ccc([N+](=O)[O-])cc2)O1 | 0.003 | 90 |
| 0.03 | 0.08 | 10.2 | N#CCC1=C(C#N)CC(c2ccc([N+](=O)[O-])cc2)=C(CC(=O)c2ccc([N+](=O)[O-])cc2)O1 | 0.005 | 98 |
| – | 0.094 | – | COc1cccc2c1C(=O)c1c(O)c3c(c(O)c1C2=O)C[C@@](O)(C(=O)CO)C[C@@H]3O[C@H]1C[C@H](N)[C@H](O)[C@H](C)O1 [DOXORUBICIN] | 0.094 | – |
